Data reported in PMC12858405, “Ideal efficacy photoswitching for chromocontrol of TRPC4/5 channel functions in live tissues” (Nature Chemical Biology, 2026).

Key:
[1] = test system: mouse ileal or jejuneal segments; test: Myographic isometric contractility of intestinal segments during photoswitching
From the text: Basal tension was then restored under 447-nm light and 365/447-nm cycling could be repeated many times (Fig. 6e). […]
7 Spontaneous motility and isometric contractility (Fig. 6)
After sacrificing mice in accordance to the European (Council Directive 2010/63/EU) and German guidelines for the welfare of experimental animals, the abdomen was opened, and intestinal loops were mobilised. Ileal segments were obtained starting 10 mm from the ileocoecal junction. Ileal segments with a length of 3 mm for myography experiments or with a length of 8-12 mm for observation of spontaneous movement were cut out and flushed with carbogen-equilibrated KBRS.
The adventitial layer was carefully peeled off, using a pair of forceps. The remaining intestinal segments, comprising mucosal, submucosal and muscular layers were placed in carbogen-saturated KBRS and immediately used for the experiments. Throughout these experiments, "wild-type" mice have the same genetic background as the knockout mice. For myography experiments, intestinal segments were prepared from mice at the age of 4-7 months. Wild-type control mice were matched in age to the respective knock-out animals.
Mice were housed in groups of two to three animals under the approved standard conditions including a 12 h light-dark-regime and access to food and water ad libitum (see above). Strains for testing intestinal contractility were C57BL6/N mice (from Charles River) and homozygous TRPC5 or TRPC4 single knockout mice,80 both back-crossed on the C57BL6/N background for at least five generations. All mice were of male sex. […]
Myographic isometric contractility: The contractile forces exerted by the circular layer of intestinal segments were quantitatively assessed by measurement in a 4-channel calibrated multi myograph device (DMT 620M, Danish Myo Technology, Hinnerup, Denmark), with digital data acquisition controlled by Labchart software (Version v8; ADINSTRUMENTS). Heated (37°C) bath chambers were filled with carbogen-equilibrated KBRS, and typically 3-mm ileal segments were manoeuvred over custom-made u-shaped hooks that prevented the mucosal layer from prolapsing on the edges. A pre-tension of typically 1.5-2 mN/mm was applied, and ileal segments were allowed […]
solvent (0.5% DMSO). After renewing the pre-tension, the recording of isometric contractions was started, while applying alternating illuminations typically at 365 nm and 447 nm, or else at 385 nm and 470 nm, (typically 10 s exposure each) over typically 9-11 cycles, with no additional illumination […]
segments (N/m) (Fig. 6d-h, Supplementary Fig. 23c-g).
7.1.1 First Saturate with Ligand, Then Dial the Wavelength
Even in the usually tricky situation that a targeted biological effect only occurs when a protein target is partially but not fully stimulated (here: physiology-like contractility as in Fig. 6e, with the overlay of the normal oscillatory frequncy), ideal efficacy switches are still perfectly capable of addressing them robustly. What is possible in the rare case that only fixed operating wavelengths may be available [e.g. in Fig. 6ef, if only 365 nm and 447 nm would be available], would be to use a sub-

[2] = Stability in DTT-containing buffers (HPLC analysis); format: physicochemical; details: confirmed by HPLC analysis
From the text: Müller, Niemeyer, et al., Schaefer & Thorn-Seshold 2025: Ideal Efficacy Photoswitching of TRPC4/5 in Tissue 1.4 Supplementary Note 4: Structural Biology and TRP Selectivity
We prepared and acquired TRPC5:E/Z-AzHC samples in one lab, and TRPC4:E/Z-AzPico independently in another, which was useful for several plausibility checks. (1) There are additional lipid densities in the pockets that are present in both TRPC4 and TRPC5, and the changes to the lipid densities in the EM maps between E and Z isomers are similar in TRPC4 and TRPC5 as well: so these changes are not dependent on protein, nature of amphipol used, or lab in which the data were obtained/processed, but are rather inherent features of the system. (2) The positions of the distal rings which are much less-well-resolved than the rest of the ligand, were independently best aligned for the E and Z isomers, and in each case found to be Z-buried vs. E-projected, which gives more confidence in this structure-based analysis. (3) Identical deleterious effects of DTT were found in each lab, and removing it removed those problems.
1.4.1 Detailed Commentary: hTRPC5:E/Z-AzHC […]
We determined high-resolution structures of hTRPC5:(E)-AzHC (2.60 Å) and hTRPC5:(Z)-AzHC (2.90 Å) without applying symmetry (Fig. 3; Supplementary Fig. 4-5 and 15-18; Supplementary […]

SMILES	Response of segments of TRPC4-deficient mice ([1]; 3 nM, 365/447 nm)	Increase of oscillatory forces under 365 nm ([1]; 3 nM, wild-type segments)	Time to recovery of oscillatory contractions under 447 nm ([1]; 30 nM, after 365 nm rictus-like state)	Effect of 365 nm at moderate to high concentration ([1]; 30 nM, 365 nm)	Photoswitchability after medium replacement ([1]; 300 nM preincubated 2 h, then washed 2 h, 385/470 nm)	Effect of 385 nm at saturating concentration ([1]; 300 nM, 385 nm)	Tonic and oscillatory force photoresponses in TRPC5-deficient mice vs matched control mice ([1]; 365/447 nm)	Stability in DTT-containing buffers [2]
Cn1c(=O)n(CCCO)c(=O)c2c1nc(Oc1ccc(N=Nc3ccccc3)c(OC(F)(F)F)c1)n2Cc1ccc(Cl)cc1 [AzPico]	never responded	1.9 ×	10 to 30 s	rictus-like intestinal tensioning and rundown	remain perfectly photoreversibly operable	only partial channel activation	indistinguishable	
Cn1c(=O)n(CCCO)c(=O)c2c1nc(Oc1ccc(N=Nc3ccccc3)c(Cl)c1)n2Cc1ccc(Cl)cc1 [AzHC]								degrades
